From patent publication US20260355164A1, “USE OF JUN INHIBITOR IN PREPARING MEDICAMENT FOR TREATING HEART FAILURE WITH PRESERVED EJECTION FRACTION” (Fuwai Hospital, Chinese Academy of Medical Sciences and …, priority 2022, published 2026) come the findings set out here.

“Also recorded” adds a separate entry of the source.

What all share (assay type): in vivo, mouse (C57BL/6N)
The subject of one assay is Jun. As to the kind of experiment: Quantitative PCR detection of Jun expression in cardiomyocytes of HFpEF model mice. Conditions: HFD+L-NAME mice treated with T-5224, compared with the model control group; qPCR, b-Actin standardized; FIG. 3D. The text has this: Male C57BL/6N wild-type mice aged 8 to 10 weeks were divided into three groups, namely, normal group (normal diet and drinking water), model control group (high-fat diet combined with administration of N-nitro-L-arginine methyl ester) and model treatment group (high-fat diet combined with administration of N-nitro-L-arginine methyl ester and treatment with T-5224). Among them, the model control group and the model treatment group were modeled by the following literature: Gabriele G. Schiattarella et al., Nitrosative stress drives heart failure with preserved ejection fraction, https://doi.org/10.1038/s41586-019-1100-z. […]
In the 15th week of model induction, the cardiomyocytes of normal group and the model control group were isolated by perfusion method, and quantitative RCR detection was performed. […]
Total RNA was extracted from cells using GeneJet RNA purification kit (Thermo Scientific, K0732), and […] of total RNA was reverse transcribed using iScript TM cDNA synthesis kit (Bio-Rad, 1708890) to generate cDNA. qPCR was performed using iTaqUniversl SYBR Green supermix (1725121, Bio-Rad) on ABI Vii7 real-time system (Life Technologies, Q6), and b-Actin was used for standardized quantitative analysis. […]
For orientation: In qPCR the cycle at which signal appears reflects the starting amount.

The nature of assay [1]: Changes in body weight / obesity of HFpEF model mice with different treatments. The note with it: HFD+L-NAME mice treated with T-5224 (total dose 250 mg/kg); FIG. 3C. The text has this:
(§1) Male C57BL/6N wild-type mice aged 8 to 10 weeks were divided into three groups, namely, normal group (normal diet and drinking water), model control group (high-fat diet combined with administration of N-nitro-L-arginine methyl ester) and model treatment group (high-fat diet combined with administration of N-nitro-L-arginine methyl ester and treatment with T-5224). Among them, the model control group and the model treatment group were modeled by the following literature: Gabriele G. Schiattarella et al., Nitrosative stress drives heart failure with preserved ejection fraction, https://doi.org/10.1038/s41586-019-1100-z. Specifically, heart failure with preserved ejection fraction was induced by a high-fat diet (HFD) (60% kcal, from fat (lard)) and N-nitro-L-arginine methyl ester (abbreviated as L-NAME, 0.5 g/L in drinking water) to obtain the HFpEF animal model.
After the animal model was obtained, that was, from the 5′ week of inducing the HFpEF model, the model treatment group was treated with T-5224, the model control group was treated with a solvent without drug, and the mice with normal diet and drinking water during the whole induction process were used as negative control. The mice were administrated with drugs when they were raised for 5 weeks. For the treatment group, T-5224 was administered at 250 mg/kg according to the body weight of mice. […]

In another assay the test system is mouse HFpEF model. As to the kind of experiment: Echocardiography and Doppler imaging (systolic and diastolic function) in HFpEF model mice (HFD+L-NAME). The note with it: male mice.
From the text: as §1, with “model. […]” for “model.”
All the mice were raised under different conditions for five weeks and then began to undergo conventional echocardiography and Doppler imaging, which was performed every two weeks until the end of the 15th week. […] All parameters were measured at least 3 times, and the mean values were provided. […]

With `O=C(O)CCc1cc(C(=O)c2ccc(OC3CCCC3)cc2O)ccc1OCc1ccc2c(O)noc2c1` [T-5224], the “expression of Jun in cardiomyocytes” value with Jun is given as “down-regulated compared with the model control group”. For the same molecule, the “mouse obesity (changes in body weight)” value in assay [1] is given as “improved”. The “diastolic function (E/E′)” value in the assay on mouse HFpEF model (HFD+0.5 g/L L-NAME, T-5224 0.8 mg in 200 μL 1% PVP every other day, 5th to 13th week, total dose 250 mg/kg, followed to 15th week, FIG. 3B) was “significantly improved and could be maintained until the 15th week”. In addition, in the assay with mouse HFpEF model (HFD+L-NAME, cardiac function detection after T-5224 administration (from 5th week, total dose 250 mg/kg), FIG. 3A-B, 250 mg/kg), the “occurrence and development of HFpEF” value was “effectively alleviate the occurrence and development of HFpEF; also recorded: well suppressed”.
